Data as given in patent US11730717B1, “Melanin-inspired antimicrobial” (The Board of Regents for the Oklahoma Agricultural and …, priority 2020, dated 2023).

Columns and labels:
Assay in all cases: Disc agar diffusion assay
Format in all cases: cell-based
[1] = test system: Serratia entomophila ATCC 43705; conditions: Group 1: Gram-negative organisms
Protocol: (§1) As a further test of an embodiment, the antibacterial properties of EIPE-1 were tested across a large panel of organisms. EIPE-1 was dissolved in DMSO, impregnated onto sterile filter paper disks, and DMSO served as the untreated control according to the following procedure: • 1. Prepare a 2.5 μg/μL stock solution of EIPE-1 by micro pipetting 200 μL of DMSO into 2.0 mL Eppendorf Tube containing 0.5 mg of EIPE-1. Dissolve with vortex agitation and store at 4° C. • 2. Use forceps to pick up sterile 6.0 mm blank paper disks. Make sure to touch only one side of disc as lightly as possible. While holding blank paper disc, deliver 10.0 μL of the 2.5 μg/μL EIPE-1 solution by touching the micropipette tip to the center of the blank paper disc. Lean the impregnated disc up against the side of a small sterile glass petri dish. Follow same procedure for DMSO control. Allow disks several hours to dry under flowing sterile air. • 3. Inoculate starter cultures using cells from working culture cultivated on Mueller-Hinton Agar (MHA; Difco Laboratories). Starters consist of ˜20 mL of Mueller-Hinton Broth (MHB; Difco Laboratories) in 125-mL culture flasks. Incubate starter cultures in an Excella E24 Benchtop Incubator Shaker (New Brunswick Scientific Co., Inc., Edison, N.J., USA) at 37° C. and 180 rpm for 15-18 hours. • 4. Pour at least 5.0 mL of NMB into 18-mL Kimax tubes. Use a Pasteur pipette to deliver enough of the starter culture cell suspension to reach an optical density (OD620) of 0.025 (Spectronic™ 20 optical spectrophotometer; Thermo Electron Corp., Madison, Wis., USA). Ensure that both transmittance and absorbance are set to 0.0 using a blank NMB sample. Incubate in rotary shaking incubator at 37° C. and 180 rpm until optical density reaches 0.1. • 5. Deliver 100 μL of test culture to the middle of a small 100 mm×15 mm Petri dish containing ˜⅛ in thickness of MHA. • 6. Saturate a sterile cotton swab with MHB by dipping the cotton swab into KIMAX® tube with MHB and then touch the swab to the north, south, east, and west side of the KIMAX® tube to remove excess broth. • 7. Streak the inoculum as follows: • a. Start in the center and make four straight lines to the 12, 3, 6, and 9 o'clock position on the petri dish. • b. Start at the 12 o'clock position and streak side to side all the way down the plate to the 6 o'clock position. […] Rotate the petri dish 90° and complete the same side to side streak all the way down the petri dish. • d. Complete step c. twice more. • e. Rotate petri dish 45° and complete the side-to-side streak. • f. Rotate petri dish 90° and complete the side-to-side streak. • 8. Use sterile forceps to transfer the DMSO control paper disc onto the agar surface and pat the paper disc down to ensure flush contact. Use the same technique to deliver EIPE-1 paper disc. • 9. Place petri dish at 4° C. for 1.0 hour to allow EIPE-1 diffusion in the absence of growth. • 10. Incubate petri dish at 37° C. for 18 hours. • 11. Observe for zones of growth inhibition surrounding disks. Measure diameter with electronic caliper and subtract 6.0-mm disc diameter. Results • a) Each organism was initially tested once to serve as a screen.

[2] = test system: Deinoccus radiophilus; conditions: Group 2: Gram-positive organisms
Protocol: as §1

[3] = test system: Pasteurella moltocida P-1581; conditions: Group 1: Gram-negative organisms
Protocol: as §1

[4] = test system: Micrococcus luteus
Protocol: as §1

[5] = test system: Escherichia coli ATCC 25922; conditions: Group 1: Gram-negative organisms
Protocol: as §1

[6] = test system: Serratia odorifera ATCC 53077; conditions: Group 1: Gram-negative organisms
Protocol: as §1

[7] = test system: Staphylococcus aureus SFL 8
Protocol: as §1

[8] = test system: Escherichia coli K12413; conditions: Group 1: Gram-negative organisms
Protocol: as §1

[9] = test system: Serratia fonticola ATCC 9844; conditions: Group 1: Gram-negative organisms
Protocol: as §1

[10] = test system: Enterococcus faecalis; conditions: Group 2: Gram-positive organisms
Protocol: as §1

[11] = test system: Serratia marcescens db11; conditions: Group 1: Gram-negative organisms
Protocol: as §1

[12] = test system: Staphylococcus aureus ATCC 29213
Protocol: as §1

[13] = test system: Serratia marcescens 8100; conditions: Group 1: Gram-negative organisms
Protocol: as §1

[14] = test system: Lactococcus lactis
Protocol: as §1

[15] = test system: Pseudomonas aeruginosa ATCC 27853; conditions: Group 1: Gram-negative organisms
Protocol: as §1

[16] = test system: Bacillus cereus
Protocol: as §1

[17] = test system: Staphylococcus aureus SFL 64
Protocol: as §1

[18] = test system: Serratia rubidaea ATCC 27593; conditions: Group 1: Gram-negative organisms
Protocol: as §1

[19] = test system: Serratia plymuthica ATCC 183; conditions: Group 1: Gram-negative organisms
Protocol: as §1

[20] = test system: Serratia marcescens ATCC 13880; conditions: Group 1: Gram-negative organisms
Protocol: as §1

[21] = test system: Staphylococcus aureus T-5706
Protocol: as §1

[22] = test system: Staphylococcus epidermidis
Protocol: as §1

[23] = test system: Serratia marcescens CO1-A; conditions: Group 1: Gram-negative organisms
Protocol: as §1

[24] = Group 2: Gram-positive organisms
[25] = Group 3: Gram-positive organisms

SMILES: COC(=O)c1cc2c(C#Cc3ccc(OCCC[N+](C)(C)C)cc3)c(OC)c(OC)c(C#Cc3ccc(OCCC[N+](C)(C)C)cc3)c2n1C [EIPE-1, 3,3′-((((5,6-dimethoxy-2-(methoxycarbonyl)-1-methyl-1H-indole-4,7-diyl)bis(ethyne-2,1-diyl))bis(4,1-phenylene))bis(oxy))bis(N,N,N-trimethylpropan-1-aminium) iodide]
- susceptibility group in disc diffusion screen [1]: resistant
- susceptibility group in disc diffusion screen [2]: resistant
- susceptibility group in disc diffusion screen [3]: resistant
- susceptibility group in disc diffusion screen [4, 24]: resistant
- zone of inhibition at 25 µg/disc ([4]; Micrococcus luteus, M. luteus, 25 μg per disk, zone minus disk diameter (6.0mm), read-out: Inhibition Zone Diameter (mm) ± SD): 1 ± 1 mm
- zone of inhibition at 250 µg/disc ([4]; Micrococcus luteus, M. luteus, 250 μg per disk, zone minus disk diameter (6.0mm), read-out: Inhibition Zone Diameter (mm) ± SD): 2.2 ± 1.9 mm
- susceptibility group in disc diffusion screen [5]: resistant
- susceptibility group in disc diffusion screen [6]: resistant
- susceptibility group in disc diffusion screen [7, 25]: susceptible
- zone of inhibition at 25 µg/disc ([7]; Staphylococcus aureus, SFL8, S. aureus SFL 8, 25 μg per disk, zone minus disk diameter (6.0mm), read-out: Inhibition Zone Diameter (mm) ± SD): 2.4 ± 1.3 mm
- zone of inhibition at 250 µg/disc ([7]; Staphylococcus aureus, SFL8, S. aureus SFL 8, 250 μg per disk, zone minus disk diameter (6.0mm), read-out: Inhibition Zone Diameter (mm) ± SD): 2.4 ± 0.3 mm
- susceptibility group in disc diffusion screen [8]: resistant
- susceptibility group in disc diffusion screen [9]: resistant
- susceptibility group in disc diffusion screen [10]: resistant
- susceptibility group in disc diffusion screen [11]: resistant
- susceptibility group in disc diffusion screen [12, 25]: susceptible
- zone of inhibition at 25 µg/disc ([12]; Staphylococcus aureus, ATCC29213, S. aureus ATCC 29213, 25 μg per disk, zone minus disk diameter (6.0mm), read-out: Inhibition Zone Diameter (mm) ± SD): 2.2 ± 0.6 mm
- zone of inhibition at 250 µg/disc ([12]; Staphylococcus aureus, ATCC29213, S. aureus ATCC 29213, 250 μg per disk, zone minus disk diameter (6.0mm), read-out: Inhibition Zone Diameter (mm) ± SD): 2.9 ± 0.3 mm
- susceptibility group in disc diffusion screen [13]: resistant
- susceptibility group in disc diffusion screen [14, 24]: resistant
- zone of inhibition at 25 µg/disc ([14]; Lactococcus lactis, L. lactis, 25 μg per disk, zone minus disk diameter (6.0mm), read-out: Inhibition Zone Diameter (mm) ± SD): 0.4 ± 0.6 mm
- susceptibility group in disc diffusion screen [15]: resistant
- zone of inhibition at 25 µg/disc ([16]; Bacillus cereus, B. cereus, 25 μg per disk, zone minus disk diameter (6.0mm), read-out: Inhibition Zone Diameter (mm) ± SD): 0 mm
- susceptibility group in disc diffusion screen [16, 24]: resistant
- susceptibility group in disc diffusion screen [17, 25]: susceptible
- zone of inhibition at 25 µg/disc ([17]; Staphylococcus aureus, SFL64, S. aureus SFL 64, 25 μg per disk, zone minus disk diameter (6.0mm), read-out: Inhibition Zone Diameter (mm) ± SD): 2.5 ± 1.5 mm
- zone of inhibition at 250 µg/disc ([17]; Staphylococcus aureus, SFL64, S. aureus SFL 64, 250 μg per disk, zone minus disk diameter (6.0mm), read-out: Inhibition Zone Diameter (mm) ± SD): 2.5 ± 0.2 mm
- susceptibility group in disc diffusion screen [18]: resistant
- susceptibility group in disc diffusion screen [19]: resistant
- susceptibility group in disc diffusion screen [20]: resistant
- susceptibility group in disc diffusion screen [21, 25]: susceptible
- zone of inhibition at 25 µg/disc ([21]; Staphylococcus aureus, T5706, S. aureus T-5706, 25 μg per disk, zone minus disk diameter (6.0mm), read-out: Inhibition Zone Diameter (mm) ± SD): 2.1 ± 0.3 mm
- zone of inhibition at 250 µg/disc ([21]; Staphylococcus aureus, T5706, S. aureus T-5706, 250 μg per disk, zone minus disk diameter (6.0mm), read-out: Inhibition Zone Diameter (mm) ± SD): 2.2 ± 0.2 mm
- susceptibility group in disc diffusion screen [22, 25]: susceptible
- zone of inhibition at 25 µg/disc ([22]; Staphylococcus epidermidis, S. epidermidis, 25 μg per disk, zone minus disk diameter (6.0mm), read-out: Inhibition Zone Diameter (mm) ± SD): 2.6 ± 0.3 mm
- zone of inhibition at 250 µg/disc ([22]; Staphylococcus epidermidis, S. epidermidis, 250 μg per disk, zone minus disk diameter (6.0mm), read-out: Inhibition Zone Diameter (mm) ± SD): 3.3 ± 0.5 mm
- susceptibility group in disc diffusion screen [23]: resistant
